Assay results from patent publication US20240018105A1, “TROPOLONE DERIVATIVES AND TAUTOMERS THEREOF FOR IRON REGULATION IN ANIMALS” (Kinesid Therapeutics, Inc., priority 2019, published 2024).

Tests used:
[1] = Mouse liver microsomal stability assay; type: in vitro ADME
Text: (§1) Compounds of the present disclosure were further evaluated in standard in vitro and in vivo Absorption, Distribution, Metabolism, Excretion (ADME) and Drug Metabolism and Pharmacokinetics (DMPK) assays to assess drug profiles important for further drug development.
(§2) Such assessments included human and mouse liver microsomal stability assays as well as 6-hour mouse PK studies.

[2] = Mouse 6-hour PK study; conditions: in vivo
Text: as §1, §2

[3] = Human liver microsomal stability assay; type: in vitro ADME
Text: as §1, §2

[4] = Ligand facilitated Fe(III) efflux from liposomes; conditions: 10 uM ligand concentration
Summary of the method: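 POPC:cholesterol liposomes loaded with Fe(III)-citrate (pH 7.0), used at 1 mM phosphorus with 1 mM ferrozine outside. Ligand at 40–1.25 μM final, in triplicate; absorbance at 562 nm read every 60 s for 120 min. Efflux rate k from single-phase association fit, averaged over triplicates.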

[5] = test system: DMT1-deficient Caco-2 cells; assay: shDMT1-Caco2 55Fe transport assay; type: cell-based
Text: Assay 2: shDMT1-Caco2 ^55Fe Transport Assay to Assess Ligand Ability in Transporting Fe (III)
Cells: DMT1-deficient Caco-2 cells (alias: “shDMT1,” or “4A” cells) were from Grillo et al. Science, 2017, and were cryopreserved in liquid nitrogen prior to use.
Reagents and supplies: ^55FeCl3 was obtained from PerkinElmer (Boston, MA). Iron(III) chloride (FeCl3) hexahydrate was obtained from Sigma. Dulbecco's Modified Eagle Medium (DMEM), fetal bovine serum (FBS), L-glutamine, MEM nonessential amino acids, penicillin-streptomycin, G418, formic acid, methanol, high-purity water, ammonium formate, dimethyl sulfoxide (DMSO) were purchased from Fisher Scientific. Propranolol, atenolol and carbutamide were obtained from Sigma-Aldrich Chemical Company (St Louis, MO). Scintillation cocktail was obtained from Research Product International Co. (Mount Prospect, IL). Stericup filter system (PES membrane, 0.22 um pore size) was purchased from Fisher Scientific. Coming item #3378 24-well transwell insert plates. Test articles: known compounds hinokitiol and deferiprone were purchased from Sigma. They are tested side by side with the small molecule ligands disclosed in this application. DMSO stocks (10 mM, which is 1,000× of the 10 μM dose level) of hinokitiol or test articles were prepared. A stock solution of 25 mM deferiprone in DMSO was prepared. The DMSO stock solutions were stored at −20° C. or below when not in use.
The growth medium was prepared according to the following table
Apical media (serum free DMEM, 10 mM MES, pH 6.5) was prepared. Apical master mix media was prepared fresh with the addition of 200 nM ^55Fe before each experiment. For the negative control propranolol and atenolol wells, 200 nM of non-radioactive iron was used.
The basolateral media was serum-free DMEM, 10 mM HEPES, 2% bovine serum albumin (BSA), pH 7.4.
For each experiment, cells were seeded into the 24-well transwell plates (0.5 mL of 50,000 cells/mL) with growth media. The basolateral companion plate was loaded with 1 mL of growth media. After 12-24 hr, both the apical and basolateral chamber were replaced with growth media. The apical media was changed 3× per week for 21-28 days, including a media change exactly 48 hr before the assay date.
On the assay day, the TEER values were measured and the average TEER values was obtained. Individual wells with TEER vaule >35% lower than the average of all wells were excluded. For the qualified wells, the apical layer (twice) and basolaterial (once) chambers were washed with PBS. The basolateral companion plate was then filled with 1 mL of basolateral media. Via addition down the side-wall of the apical well, 300 μL per well of the apical assay master mix, with the indicated dose level of test article, was added. Each dose was tested in triplicate. The plates were incubated (5% CO2 and 90% humidity at 37° C.) for the indicated timepoints. At each indicated timepoint, the basolateral supernatant was gently mixed via pipetting, and 200 μL of the basolateral supernatant was transferred to scintillation vials. To each scintillation counting vial, 5 mL of scintillation cocktail fluid was added. For each scintillation vial, the radioactivity (CPM) was determined with liquid scintillation counter LS6500. The counting time per vial was 5 min.
All raw CPM values are divided by the average value of blank DMSO solution to give a fold of change above the DMSO value. The mean and standard deviation of each compound at each concentration level and at each time point measured was calculated to give the fold change (fc) value.
For rank order compounds, the fc value of a ligand at 4 h time point is further divided by the fold change (fc) value of hinokitiol (a positive control compound) at an equimolar concentration to arrive at the FC (normalized fold of change) value. Data reported in Tables 1 and 2 is 4 hr time point FC=fc-ligand @ 3 uM/fc-hino @ 3 uM, and FC hino=1.

| SMILES | half-life ([1]; mouse, microsomes) | microsomal CLint ([1]; mouse, microsomes) | AUC(0-t) [2] | Cmax [2] | half-life [2] | half-life ([3]; human, microsomes) | microsomal CLint ([3]; human, microsomes) | Caco2 shDMT1 transport FC @ 3 μM, 4h ([5]; Caco-2) | mouse 6-hour PK properties compared to hinokitiol [2] | Liposome Fe transport kefflux at 10 10 μM ([4]; Table 1) | clearence half-life (t1/2) and/or intrinsic clearence (CLint) compared to hinokitiol ([3]; microsomes) | Liposome Fe transport Kefflux at 10 μM ([4]; Table 2) | microsomal CLint ([1]; mouse liver microsomes, Table 4, read-out: Mouse CLint) | half-life ([1]; mouse liver microsomes, Table 4, read-out: Mouse t1/2) | microsomal CLint ([3]; human liver microsomes, Table 4, read-out: Human CLint) | half-life ([3]; human liver microsomes, Table 4, read-out: Human t1/2) | Liposome Fe transport Kefflux at 10 μM ([4]; Table 1) | Caco2 shDMT1 transport FC @ 3 μM, 4h ([5]; 3 μM, 4 h, fold change normalized to hinokitiol (FC hino=1), Table 1) | Caco2 shDMT1 transport FC @ 3 μM, 4h ([5]; 3 μM, 4 h, fold change normalized to hinokitiol (FC hino=1), Table 2) |
| --- | --- | --- | --- | --- | --- | --- | --- | --- | --- | --- | --- | --- | --- | --- | --- | --- | --- | --- | --- |
| O=c1cccc(-c2ccc(F)cn2)cc1O [Ex.3, 4-(5-fluoropyridin-2-yl)-2-hydroxycyclohepta-2,4,6-trien-1-one] | > 2 h | < 11.6 µL/min/mg | 5000 to 20000 ng·h/mL | 1500 to 5000 ng/mL | 1.25 to 4.99 h | > 2 h | < 11.6 µL/min/mg | 0.01-0.5 | one or more improved mouse 6-hour PK properties compared to hinokitiol | 5-7.5 | – | – | – | – | – | – | – | – | – |
| O=c1cccc(-c2cnc(C3CC3)nc2)cc1O [Ex.37] | > 2 h | < 11.6 µL/min/mg | 1500 to 5000 ng·h/mL | 500 to 1500 ng/mL | 1.25 to 4.99 h | > 2 h | < 11.6 µL/min/mg | 0.01-0.5 | one or more improved mouse 6-hour PK properties compared to hinokitiol | 5-7.5 | – | – | – | – | – | – | – | – | – |
| O=c1ccccc(Oc2ccc(F)cc2F)c1O [Ex.67, 3-(2,4-difluorophenoxy)-2-hydroxycyclohepta-2,4,6-trien-1-one] | – | – | 1500 to 5000 ng·h/mL | 1500 to 5000 ng/mL | 1.25 to 4.99 h | – | – | 0.01-0.5 | one or more improved mouse 6-hour PK properties compared to hinokitiol | – | – | <0.1 | – | – | – | – | – | – | – |
| CC(C)c1cccc(=O)c(O)c1 [hinokitiol, reference compound] | – | – | – | – | – | – | – | – | – | – | – | 7.77 | 43.4 µL/min/mg | 0.533 h | 150 µL/min/mg | 0.153 h | 7.77 | 1 | 1.00 |

More lines, main results first:

| half-life ([1]; mouse, microsomes) | microsomal CLint ([1]; mouse, microsomes) | AUC(0-t) [2] | Cmax [2] | half-life [2] | half-life ([3]; human, microsomes) | microsomal CLint ([3]; human, microsomes) | Caco2 shDMT1 transport FC @ 3 μM, 4h ([5]; Caco-2) | SMILES | mouse 6-hour PK properties compared to hinokitiol [2] | Liposome Fe transport kefflux at 10 10 μM ([4]; Table 1) | clearence half-life (t1/2) and/or intrinsic clearence (CLint) compared to hinokitiol ([3]; microsomes) | Liposome Fe transport Kefflux at 10 μM ([4]; Table 2) | microsomal CLint ([1]; mouse liver microsomes, Table 4, read-out: Mouse CLint) | half-life ([1]; mouse liver microsomes, Table 4, read-out: Mouse t1/2) | microsomal CLint ([3]; human liver microsomes, Table 4, read-out: Human CLint) | half-life ([3]; human liver microsomes, Table 4, read-out: Human t1/2) | Liposome Fe transport Kefflux at 10 μM ([4]; Table 1) | Caco2 shDMT1 transport FC @ 3 μM, 4h ([5]; 3 μM, 4 h, fold change normalized to hinokitiol (FC hino=1), Table 1) | Caco2 shDMT1 transport FC @ 3 μM, 4h ([5]; 3 μM, 4 h, fold change normalized to hinokitiol (FC hino=1), Table 2) |
| --- | --- | --- | --- | --- | --- | --- | --- | --- | --- | --- | --- | --- | --- | --- | --- | --- | --- | --- | --- |
| > 2 h | < 11.6 µL/min/mg | 5000 to 20000 ng·h/mL | 5000 to 20000 ng/mL | < 1.25 h | > 2 h | < 11.6 µL/min/mg | 0.01-0.5 | O=c1cccc(-c2cncc(F)c2)cc1O [Ex.1, 4-(5-fluoropyridin-3-yl)-2-hydroxycyclohepta-2,4,6-trien-1-one] | one or more improved mouse 6-hour PK properties compared to hinokitiol | 5-7.5 | – | – | – | – | – | – | – | – | – |
| 1.38 h | 16.7 µL/min/mg | > 20000 ng·h/mL | 5000 to 20000 ng/mL | 1.25 to 4.99 h | > 2 h | < 11.6 µL/min/mg | 0.5-1 | Cc1ccc(-c2cncc(F)c2)cc(O)c1=O [Ex.16, 4-(5-fluoropyridin-3-yl)-2-hydroxy-7-methylcyclohepta-2,4,6-trien-1-one] | one or more improved mouse 6-hour PK properties compared to hinokitiol | 10-25 | – | – | – | – | – | – | – | – | – |
| > 2 h | < 11.6 µL/min/mg | > 20000 ng·h/mL | 5000 to 20000 ng/mL | 1.25 to 4.99 h | > 2 h | < 11.6 µL/min/mg | 0.01-0.5 | Cc1c(F)cncc1-c1ccc([O-])c(=O)cc1.[Na+] [Ex.23, sodium 4-(5-fluoro-4-methylpyridin-3-yl)-7-oxocyclohepta-1,3,5-trien-1-olate] | one or more improved mouse 6-hour PK properties compared to hinokitiol | 10-25 | – | – | – | – | – | – | – | – | – |
| > 2.5 h | < 25 µL/min/mg | 1500 to 5000 ng·h/mL | 1500 to 5000 ng/mL | 1.25 to 4.99 h | > 2.5 h | < 25 µL/min/mg | 0.01-0.5 | O=c1ccccc(-c2ccc(F)cn2)c1O [Ex.26, 3-(5-fluoropyridin-2-yl)-2-hydroxycyclohepta-2,4,6-trien-1-one] | one or more improved mouse 6-hour PK properties compared to hinokitiol | 10-25 | longer clearence half-life (t1/2) and/or lower intrinsic clearence (CLint) than hinokitiol | – | – | – | – | – | – | – | – |
| > 2 h | < 11.6 µL/min/mg | 1500 to 5000 ng·h/mL | 1500 to 5000 ng/mL | 1.25 to 4.99 h | > 2 h | < 11.6 µL/min/mg | 0.01-0.5 | Cc1ncc(-c2cccc(=O)c(O)c2)cn1 [Ex.31, 2-hydroxy-4-(2-methylpyrimidin-5-yl)cyclohepta-2,4,6-trien-1-one] | one or more improved mouse 6-hour PK properties compared to hinokitiol | 0.1-5 | – | – | – | – | – | – | – | – | – |
| > 2 h | < 11.6 µL/min/mg | 5000 to 20000 ng·h/mL | 1500 to 5000 ng/mL | 1.25 to 4.99 h | > 2 h | < 11.6 µL/min/mg | 0.01-0.5 | Cc1ncc(-c2cccc(=O)c(O)c2)c(C)n1 [Ex.32, 4-(2,4-dimethylpyrimidin-5-yl)-2-hydroxycyclohepta-2,4,6-trien-1-one] | one or more improved mouse 6-hour PK properties compared to hinokitiol | 5-7.5 | – | – | – | – | – | – | – | – | – |
| > 2 h | < 11.6 µL/min/mg | 1500 to 5000 ng·h/mL | 500 to 1500 ng/mL | 1.25 to 4.99 h | > 2 h | < 11.6 µL/min/mg | 0.01-0.5 | Cc1ncc(-c2cccc(=O)c(O)c2)cc1F [Ex.57, 4-(5-fluoro-6-methylpyridin-3-yl)-2-hydroxycyclohepta-2,4,6-trien-1-one] | one or more improved mouse 6-hour PK properties compared to hinokitiol | 7.5-10 | – | – | – | – | – | – | – | – | – |
